We go through two compounds from paper PMC5797143, “Epigenetic modulation of inflammation and synaptic plasticity promotes resilience against stress in mice” (Nature Communications, 2018).

The structures appear in SMILES notation. Like-named read-outs stand apart in the source and are kept apart here.

Data set [1] is described as follows: Cytotoxicity by high content screening (HCS). It counts as cell-based. Conditions: human, HepG2 cells. The source says:
(§1) Based on the efficacy of DHCA/Mal-gluc in treating stress-induced depression, we initiated an in vitro toxicity and drug-like properties studies to investigate the potential of developing these two phytochemicals as novel therapies. […] At low concentrations, DHCA and Mal-gluc had no detectable effects on cell number, nuclear size, DNA structure, cell membrane permeability, mitochondrial mass, mitochondrial membrane potential or cytochrome C release in high content screening (HCS)[41] using HepG2 cells (Table 1). At high concentrations, Mal-gluc reduced cell number, increased nuclear size, […], and increased mitochondrial mass, with calculated EC50s beyond physiological concentration (Table 1).
(§2) MTT and LDH release assays were conducted in MSN-enriched primary neurons and in PBMCs[64]. Cellular cytotoxicity was conducted in HepG2 cells using high content screening (HCS) protocols. Briefly, HepG2 cells were plated on 384-well tissue culture treated black walled clear bottomed polystyrene plates and treated with varying concentrations of Mal-gluc or DHCA. The cells were loaded with the relevant dye/antibody for each cell-health marker following incubation, including cell count, markers for nuclear size, DNA structure, cell membrane permeability, mitochondrial mass, mitochondrial membrane potential and cytochrome C release. The plates were then scanned using an automated fluorescent cellular imager ArrayScanr (Thermo Scientific Cellomics).

For data set [2], the system named is CpG-rich sequences of mouse IL-6 promoter and introns 1, 3. Kind of data set: CpG-free luciferase reporter with IL-6 promoter/intron CpG-rich segments in N2a cells. It counts as cell-based. The conditions noted are these: 24 h. The protocol: To investigate how DHCA may attenuate IL-6 generation, we tested the effect of DHCA on Toll-like receptor-4 mediated signaling pathways. PBMCs were pretreated with DHCA and stimulated with LPS using the same protocol as during screening. Samples were taken at 0, 30 min, 60 min, 6 h and 16 h following LPS stimulation and cell lysates were subjected to a multiplex ELISA assay. […] Based on evidence that DNA methylation at a single CpG in the human IL-6 promoter region effectively alters IL-6 expression, we next tested whether DHCA can modulate IL-6 gene expression through methylation mechanisms. We treated PBMC cells with DHCA and measured the expression of enzymes essential for DNA methylation/demethylation. […] To investigate how methylation influences IL-6 gene expression, we employed the CpG-free luciferase reporter system. We cloned a ~280 bp CpG rich DNA segment from the mouse IL-6 promoter into a promoterless CpG-free reporter construct and transfected into N2a cells. We found the CpG-rich IL-6 promoter segment presented no inherent promoter activity as reflected by no differences in luciferase activity compared to the control construct (Fig. 2f). […] We then cloned CpG rich DNA segments from IL-6 introns 1, 3 or 4 into the CpG-free luciferase reporter construct with a minimal EF1 promoter and no enhancer activity. […] In contrast, the CpG-rich region of IL-6 intron 4 presented no observable enhancer activity (Fig. 2g). […] To test whether DHCA may influence the expression of other pro-inflammatory factors, we measured the level of secreted cytokines following LPS stimulation (Supplementary Fig. 3).
CpG-rich motif from mouse IL-6 promoter and intron 1, intron 3, and intron 4 were cloned into basic (no promoter or enhancer) or promoter (minimal EF1 promoter with no enhancer) pCpG-free Lucia plasmid (InvivoGen) using In-Fusion Cloning Kit (Clontech Laboratories). Plasmids were prepared in E. coli GT115 cells and expressed in N2A neuoblastoma cells using lipofectamine 2000 (ThermoFisher) according to manufacturer’s instruction. Following overnight recovery, cells were subjected to 5 µM of methylation inhibitor 5-Aza-2′-deoxycytidine (AZA-DC) or DHCA treatment. Twenty-four hours later, 10 µl of medium was incubated with 50 µl of QUANTI-Luc luciferase substrate for luciferase activity assessment.

The next data set relates to IL-6. Kind of data set: In vivo dose finding: plasma IL-6 after LPS challenge. Also on record: species or system mouse. The conditions noted are these: 50 µg to 50 mg/kg-BW/day in drinking water, 2 weeks; LPS 0.4 mg/kg-BW i.p.; 5 and 50 mg/kg most significant. The protocol:
We then initiated dose response and safety studies in mice to determine testing dosages and safety of DHCA and Mal-gluc. C57BL/6 mice were treated with either DHCA (doses ranging from 50 µg to 50 mg/kg-BW/day) or Mal-gluc (doses ranging from 50 ng to 5 mg/kg-BW/day) for 2 weeks to simulate long-term administration. Mice treated with DHCA were challenged with intraperitoneal (i.p.) injection of 0.4 mg/kg-BW LPS and plasma levels of IL-6 were measured 6 h post injection. […] Following common discovery-stage practices, we measured the plasma levels of alkaline phosphatase (ALP), aspartate aminotransferase (AST), and alanine aminotransferase (ALT) for liver function and blood urea nitrogen (BUN) for renal function.
Male C57BL/6 J mice (8-week-old) were placed on a polyphenol-free AIN-93M diet and treated with various doses of DHCA (vehicle, 50 µg, 500 µg, 5 mg, and 50 mg/kg-BW/day), delivered through their drinking water for two weeks. Animals were then sacrificed and plasma was collected for routine biochemistry panel analysis including ALP, ALT, and AST for liver function and blood urea nitrogen (BUN) content for kidney function. A separate group of mice was similarly treated and challenged with an i.p. injection of 0.4 mg/kg body weight LPS and plasma was collected 6 h post injection for IL-6 analysis. […]

The subject of a further data set is HepG2 cells. Kind of data set: Cytotoxicity by high content screening (HCS). The format is cell-based.
Excerpt: as §1, §2

[3] abbreviates: DHCA ↑ (NS, fit not statistically significant), NR = No response observed, read-out: Cytotoxicity by HCS (AC50), Mitochondrial membrane potential.
[4] abbreviates: DHCA ↑, NR = No response observed, read-out: Cytotoxicity by HCS (AC50), Cytochrome C release.
Where [5] appears, read: Malvidin-gluc ↑, NR = No response observed, read-out: Cytotoxicity by HCS (AC50), Mitochondrial mass.
Setting [6] is: Malvidin-gluc ↑, NR = No response observed, read-out: Cytotoxicity by HCS (AC50), Nuclear size.
[7] abbreviates: Malvidin-gluc ↓, NR = No response observed, read-out: Cytotoxicity by HCS (AC50), Cell number.
Setting [8] is: NR = No response observed, read-out: Cytotoxicity by HCS (AC50), DNA structure.
[9] abbreviates: both ↓, read-out: Cytotoxicity by HCS (AC50), Cell membrane permeability.

Take `O=C(O)CCc1ccc(O)c(O)c1` [DHCA, 3(3,4-dihydroxy-phenyl) propionic acid]: the AC50 in data set [1] (setting [3]), in data set [1] (setting [4]), in data set [1] (setting [5]), in data set [1] (setting [6]), in data set [1] (setting [7]) and in data set [1] (setting [8]) was > 200 µM in each case. The AC50 in data set [1] (setting [9]) was 56.6 µM. Also, the “luciferase (enhancer) activity, IL-6 intron 1” value in data set [2] was “partially attenuated”. The “luciferase (enhancer) activity, IL-6 intron 3” value in data set [2] is recorded as “totally abolished”. In the data set on IL-6, the “plasma IL-6 6 h post LPS injection” value is “dose-dependent suppression of IL-6”.

As to `COc1cc(-c2[o+]c3cc(O)cc(O)c3cc2O[C@@H]2O[C@H](CO)[C@@H](O)[C@H](O)[C@H]2O)cc(OC)c1O` [Mal-gluc], the AC50 was > 200 µM in the data set on HepG2 cells (setting [3]); > 200 µM in the data set on HepG2 cells (setting [4]); 176 µM in the data set on HepG2 cells (setting [5]); 88.4 µM in the data set on HepG2 cells (setting [6]); 176 µM with HepG2 cells (setting [7]); > 200 µM in the data set on HepG2 cells (setting [8]). Besides, in the data set on HepG2 cells (setting [9]), the half-maximal activity concentration (AC50) was 52.7 µM.

For orientation: AC50 means the concentration at which the activity in the assay is half-maximal.
